Measurements from patent US12274684B2, “Treatment of vasculopathy with prostacyclin and mesenchymal stem cells” (United Therapeutics Corporation, priority 2013, dated 2025).

Test system: human bone marrow MSC
Experiment: Microarray gene expression analysis of MSC (Illumina Human HT12 Expression BeadChip)
Type: cell-based
Details: Tre(+) 250 μg/mL, 24 h
Description: Human bone marrow MSC were expanded and seeded into six (6) T225 flasks using standard growth medium (Table 1). At 95-99% confluency, cells were thoroughly washed with PBS. Three (3) flasks were replenished with basal media containing 250 μg/mL treprostinil, (+)Tre, and the remaining three (3) flasks were replenished with unsupplemented basal media, (−)Tre. After 24 hours of culture, representative images were captured from (+) Tre and (−) Tre cultures. Conditioned media was collected from each replicate, divided into two samples of appropriate volumes, and analyzed separately for: 1) secreted proteins (Myriad RBM InflammationMAP® 1.0) and 2) exosome RNA content. Cells were lysed directly from culture flasks, processed for total RNA isolation, and analyzed for gene expression by microarray (Illumina Human HT12 Expression BeadChip). Microarray gene expression analysis was also performed on MSC from cultures without (−) or with (+) 250 ug/mL treprostinil. Three (3) biological replicates from each condition were analyzed. Of the 77,612 sequences identified among all replicates, only 24,273 were detected above the arbitrary background of 50 counts. 2,984 RNA sequences were unique to Tre(−) cultures, while 1,781 RNA sequences were unique to Tre(+) cultures (panel A). Genes detected in both conditions were further analyzed for differential expression (panel). […] Genes that are expressed only in Tre(−) cultures (that is to say, completely turned off in the Tre(+) cultures) are shown in Table 5.

CCCCC[C@H](O)CC[C@@H]1[C@H]2Cc3cccc(OCC(=O)O)c3C[C@H]2C[C@H]1O [treprostinil]
CLDN11 (NM_005602) expression, AVG (Tre(−) AVG 543): 13 counts
FAM198B (NM_001128424) expression, AVG (Tre(−) AVG 559): 15 counts
SLC7A8 (NM_182728) expression, AVG (Tre(−) AVG 613): 43 counts
ASPM (NM_018136) expression, AVG (Tre(−) AVG 625): 26 counts
CPA4 (NM_016352) expression, AVG (Tre(−) AVG 631): 53 counts
CELF1 (NM_001172640) expression, AVG (Tre(−) AVG 644): 59 counts
TCF12 (NM_207040) expression, AVG (Tre(−) AVG 648): 40 counts
SCN2A (NM_021007) expression, AVG (Tre(−) AVG 652): 20 counts
ASPH (NM_001164754) expression, AVG (Tre(−) AVG 658): 37 counts
CIT (NM_001206999) expression, AVG (Tre(−) AVG 661): 9 counts
VEGFA (NM_001171626) expression, AVG (Tre(−) AVG 664): 7603 counts
ANLN (NM_018685) expression, AVG (Tre(−) AVG 669): 57 counts
ST8SIA1 (NM_003034) expression, AVG (Tre(−) AVG 731): 45 counts
TPM1 (NM_001018007) expression, AVG (Tre(−) AVG 731): 36 counts
FAM84A (NM_145175) expression, AVG (Tre(−) AVG 733): 45 counts
SPATA20 (NM_022827) expression, AVG (Tre(−) AVG 733): 15 counts
PRRT2 (NM_145239) expression, AVG (Tre(−) AVG 744): 36 counts
LRRC17 (NM_001031692) expression, AVG (Tre(−) AVG 746): 22 counts
ANGPT1 (NM_001146) expression, AVG (Tre(−) AVG 780): 53 counts
ANK3 (NM_001204403) expression, AVG (Tre(−) AVG 811): 57 counts
SNX14 (NM_153816) expression, AVG (Tre(−) AVG 813): 18 counts
RCAN1 (NM_203418) expression, AVG (Tre(−) AVG 814): 8908 counts
OLFML1 (NM_198474) expression, AVG (Table 5) (Tre(−) AVG 816): 42 counts
RASA4 (NM_006989) expression, AVG (Tre(−) AVG 857): 11 counts
GDF5 (NM_000557) expression, AVG (Tre(−) AVG 883): 71 counts
MAP1B (NM_005909) expression, AVG (Tre(−) AVG 886): 42 counts
C13orf33 (NM_032849) expression, AVG (Tre(−) AVG 918): 19296 counts
MEOX2 (NM_005924) expression, AVG (Tre(−) AVG 982): 31 counts
MYLK (NM_053025) expression, AVG (Tre(−) AVG 991): 0 counts
SLC14A1 (NM_015865) expression, AVG (Table 5) (Tre(−) AVG 1036): 19 counts
FLG (NM_002016) expression, AVG (Tre(−) AVG 1052): 28 counts
ARPC4 (NM_001024960) expression, AVG (Tre(−) AVG 1150): 12 counts
RCAN2 (NM_001251974) expression, AVG (Tre(−) AVG 1218): 105 counts
EPB41L2 (NM_001199389) expression, AVG (Tre(−) AVG 1272): 113 counts
SLC2A12 (NM_145176) expression, AVG (Tre(−) AVG 1281): 105 counts
MEST (NM_002402) expression, AVG (Tre(−) AVG 1283): 85 counts
METTL7A (NM_014033) expression, AVG (Tre(−) AVG 1299): 109 counts
S100A4 (NM_002961) expression, AVG (Tre(−) AVG 1312): 125 counts
RBFOX2 (NM_001031695) expression, AVG (Tre(−) AVG 1316): 10 counts
ACTN1 (NM_001130005) expression, AVG (Tre(−) AVG 1459): 115 counts
OLFML2B (NM_015441) expression, AVG (Tre(−) AVG 1465): 70 counts
PRELP (NM_002725) expression, AVG (Tre(−) AVG 1474): 114 counts
COL21A1 (NM_030820) expression, AVG (Tre(−) AVG 1569): 57 counts
SLC14A1 (NM_015865) expression, AVG (Table 4) (Tre(−) AVG 1621): 88 counts
DDAH1 (NM_001134445) expression, AVG (Tre(−) AVG 1685): 133 counts
LMOD1 (NM_012134) expression, AVG (Tre(−) AVG 1722): 65 counts
OLFML1 (NM_198474) expression, AVG (Table 4) (Tre(−) AVG 1734): 140 counts
MXRA5 (NM_015419) expression, AVG (Tre(−) AVG 1759): 54 counts
DKFZp547J0510 (CDNA FLJ42650 fis, clone BRACE3027478) expression, AVG (Tre(−) AVG 1932): 148 counts
PLIN2 (NM_001122) expression, AVG (Tre(−) AVG 1976): 92927 counts
SYNPO2 (NM_001128933) expression, AVG (Tre(−) AVG 2551): 104 counts
ASPH (NM_004318) expression, AVG (Tre(−) AVG 2719): 1 counts
SREBF1 (NM_001005291) expression, AVG (Tre(−) AVG 2936): 12 counts
SLC3A2 (NM_001013251) expression, AVG (Tre(−) AVG 3190): 33526 counts
PDE5A (NM_033430) expression, AVG (Tre(−) AVG 3361): 222 counts
MEST (NM_177525) expression, AVG (Tre(−) AVG 3552): 298 counts
RND3 (NM_005168) expression, AVG (Tre(−) AVG 4013): 51756 counts
ISLR (NM_005545) expression, AVG (Tre(−) AVG 5533): 548 counts
PALLD (NM_001166109) expression, AVG (Tre(−) AVG 9809): 753 counts
CXCL12 (NM_199168) expression, AVG (Tre(−) AVG 10574): 671 counts
CTGF (NM_001901) expression, AVG (Tre(−) AVG 23012): 741 counts
COL6A3 (NM_004369) expression, AVG (Tre(−) AVG 54326): 4635 counts
